Values quoted from earlier work in patent US8575155B2, “Composition and method to modify sperm function and increase male gender ratio in mammals” (priority 2008, dated 2013).

Legend:
[1] = system: early-staged mouse embryos

For `CCN(CC)c1cc2c(cc1C)Nc1ccc(N)cc1O2` [BCB, 2-methyl-3-diethylamino-7-amino phenoxazine], the “toxicity of BCB and its metabolites” value [1] is given as “relatively non-toxic”, the “increase in oxidation of glucose through the HMS” value (bovine oocytes) is given as 15 fold and the “increase in glucose oxidation through glycolysis” value (bovine oocytes; compared with the increase through the HMS) is given as “somewhat less increase”.
